Reference: patent US12376590B2, “Compositions comprising pyridine carboxylate herbicides and azole carboxylate safeners” (Corteva Agriscience LLC, priority 2018, dated 2025)

What was measured:
Assay in all cases: Greenhouse postemergence herbicidal safening trial, visual injury after 20-22 d
Settings in all cases: applied alone
giant foxtail (SETFA) = type: in vivo, Setaria faberi
Source text: (§1) Greenhouse Trial Methodology—Evaluation of Postemergence Herbicidal Safening in Crops
(§2) Seeds of the desired test plant species were planted in a 90:10% v/v (volume/volume) mixture of PRO-MIX® BX (Premier Tech Horticulture, Quakertown, PA, USA) and PROFILE® GREENS GRADE™ (Profile Products LLC, Buffalo Grove, IL, USA) planting mixture, which typically has a pH of 5.2 to 6.2 and an organic matter content of at least 50 percent, in plastic pots with a surface area of 103.2 square centimeters (cm^2). When required to ensure good germination and healthy plants, a fungicide treatment and/or other chemical or physical treatment was applied. The plants were grown for 7-36 days (d) in a greenhouse with an approximate 14-hour (h) photo-period which was maintained at about 23° C. during the day and 22° C. during the night. Nutrients and water were added on a regular basis and supplemental lighting was provided with overhead metal halide 1000-Watt lamps as necessary. The plants were employed for testing when they reached the second or third true leaf stage.
(§3) Emulsifiable concentrates of each of each pyridine carboxylate herbicide (Compound A or Compound B) were prepared at 100 grams acid equivalent per liter (g ae/L). An aliquot of each emulsifiable concentrate was placed in a 25 mL glass vial and diluted with an aqueous mixture of 1.25% (v/v) ACTIROB® B esterified rapeseed oil (Bayer Crop Science, Research Triangle Park, NC, USA) or MSO® Concentrate with LECI-TECH® methylated soybean oil (Loveland Products, Loveland, CO, USA) to obtain concentrated stock solutions at the highest application rate for each herbicide, based upon a 12 milliliter (mL) application volume at a rate of 187 liters per hectare (L/ha). The concentrated stock solutions were further diluted with an aqueous mixture of 1.25% v/v ACTIROB® B or MSO® Concentrate with LECI-TECH® to obtain stock solutions at reduced application rates for each herbicide. Spray solutions of the herbicide combinations (Compound A or Compound B plus safener) were prepared by adding weighed amounts or aliquots of the azole carboxylate safener to the stock solutions of Compound A or Compound B to form 12-mL spray solutions in two-way combinations.
(§4) The spray solutions were applied to the plant material with an overhead Mandel track sprayer equipped with 8002E nozzles calibrated to deliver 187 L/ha over an application area of 0.503 square meters (m^2) at a spray height of 18 inches (43 centimeters (cm)) above the average plant canopy. Control plants were sprayed in the same manner with the solvent blank. All herbicide (component a) application rates are given as “g ae/ha” and all safener (component b) application rates are given as “g ai/ha.”
(§5) The treated plants and control plants were placed in a greenhouse as described above and watered by sub-irrigation to prevent wash-off of the test compounds. After 20-22 d, the condition of the test plants as compared with that of the control plants was determined visually and scored on a scale of 0 to 100 percent where 0 corresponds to no injury and 100 corresponds to complete kill.

[1] = tested on: common lambsquarters (CHEAL); type: in vivo, Chenopodium album L.
Source text: as §1, §2, §3, §4, §5

winter wheat (TRZAW) = type: in vivo, Triticum aestivum
Source text: as §1, §2, §3, §4, §5

soybean (GLXMA) = type: in vivo, Glycine max
Source text: as §1, §2, §3, §4, §5

pigweed (AMARE) = type: in vivo, Amaranthus retroflexus
Source text: as §1, §2, §3, §4, §5

wild pansy (VIOTR) = type: in vivo, Viola tricolor
Source text: as §1, §2, §3, §4, §5

Italian ryegrass (LOLMU) = type: in vivo, Lolium multiflorum
Source text: as §1, §2, §3, §4, §5

Canada thistle (CIRAR) = type: in vivo, Cirsium arvense
Source text: as §1, §2, §3, §4, §5

maize (ZEAMX) = type: in vivo, Zea mays
Source text: as §1, §2, §3, §4, §5

blackgrass (ALOMY) = type: in vivo, Alopecurus myosuroides
Source text: as §1, §2, §3, §4, §5

barnyardgrass (ECHCG) = type: in vivo, Echinochloa crus-galli
Source text: as §1, §2, §3, §4, §5

kochia (KCHSC) = type: in vivo, Kochia scoparia
Source text: as §1, §2, §3, §4, §5

[2] = tested on: herbicide-resistant kochia (KCHSC-R); type: in vivo, Kochia scoparia
Source text: as §1, §2, §3, §4, §5

common rice (ORYSA) = type: in vivo, Oryza sativa
Source text: as §1, §2, §3, §4, §5

wild oat (AVEFA) = type: in vivo, Avena fatua
Source text: as §1, §2, §3, §4, §5

large crabgrass (DIGSA) = type: in vivo, Digitaria sanguinalis
Source text: as §1, §2, §3, §4, §5

Johnson grass (SORHA) = type: in vivo, Sorghum halepense
Source text: as §1, §2, §3, §4, §5

common sunflower (HELAN) = type: in vivo, Helianthus annuus
Source text: as §1, §2, §3, §4, §5

wild buckwheat (POLCO) = type: in vivo, Polygonum convolvulus
Source text: as §1, §2, §3, §4, §5

[3] = tested on: Chinese sprangletop (LEFCH); type: in vivo, Leptochloa chinensis
Source text: as §1, §2, §3, §4, §5

winter rape (BRSNW) = type: in vivo, Brassica napus
Source text: as §1, §2, §3, §4, §5

[4] = tested on: ivyleaf morningglory (IPOHE); type: in vivo, Ipomoea hederacea
Source text: as §1, §2, §3, §4, §5

velvetleaf (ABUTH) = type: in vivo, Abutilon theophrasti
Source text: as §1, §2, §3, §4, §5

Canada horseweed (ERICA) = type: in vivo, Erigeron canadensis
Source text: as §1, §2, §3, §4, §5

nutsedge (CYPES) = type: in vivo, Cyperus esculentus
Source text: as §1, §2, §3, §4, §5

spring wheat (TRZAS) = type: in vivo, Triticum aestivum
Source text: as §1, §2, §3, §4, §5

wild chamomile (MATCH) = type: in vivo, Matricaria chamomilla
Source text: as §1, §2, §3, §4, §5

spring barley (HORVS) = type: in vivo, Hordeum vulgare
Source text: as §1, §2, §3, §4, §5

Russian thistle (SASKR) = type: in vivo, Salsola kali
Source text: as §1, §2, §3, §4, §5

Measured: % visual injury Ob

O=C(O)c1nc(C(Cl)(Cl)Cl)n(-c2ccc(Cl)cc2Cl)n1 [Fenchlorazole, fenchlorazole]
0%: giant foxtail (SETFA); 20 g/ha | giant foxtail (SETFA); 40 g/ha | giant foxtail (SETFA); 80 g/ha | [1]; 20 g/ha | [1]; 40 g/ha | [1]; 80 g/ha | winter wheat (TRZAW); 20 g/ha | winter wheat (TRZAW); 40 g/ha | winter wheat (TRZAW); 80 g/ha | soybean (GLXMA); 20 g/ha | soybean (GLXMA); 40 g/ha | soybean (GLXMA); 80 g/ha | pigweed (AMARE); 20 g/ha | pigweed (AMARE); 40 g/ha | pigweed (AMARE); 80 g/ha | wild pansy (VIOTR); 20 g/ha | wild pansy (VIOTR); 40 g/ha | wild pansy (VIOTR); 80 g/ha | Italian ryegrass (LOLMU); 20 g/ha | Italian ryegrass (LOLMU); 40 g/ha | Italian ryegrass (LOLMU); 80 g/ha | Canada thistle (CIRAR); 20 g/ha | Canada thistle (CIRAR); 40 g/ha | Canada thistle (CIRAR); 80 g/ha | maize (ZEAMX); 20 g/ha | maize (ZEAMX); 40 g/ha | maize (ZEAMX); 80 g/ha | blackgrass (ALOMY); 20 g/ha | blackgrass (ALOMY); 40 g/ha | blackgrass (ALOMY); 80 g/ha | barnyardgrass (ECHCG); 20 g/ha | barnyardgrass (ECHCG); 40 g/ha | barnyardgrass (ECHCG); 80 g/ha | kochia (KCHSC); 20 g/ha | kochia (KCHSC); 40 g/ha | kochia (KCHSC); 80 g/ha | [2]; 20 g/ha | [2]; 40 g/ha | [2]; 80 g/ha | common rice (ORYSA); 20 g/ha | common rice (ORYSA); 40 g/ha | common rice (ORYSA); 80 g/ha | wild oat (AVEFA); 20 g/ha | wild oat (AVEFA); 40 g/ha | wild oat (AVEFA); 80 g/ha | large crabgrass (DIGSA); 20 g/ha | large crabgrass (DIGSA); 40 g/ha | large crabgrass (DIGSA); 80 g/ha | Johnson grass (SORHA); 20 g/ha | Johnson grass (SORHA); 40 g/ha | Johnson grass (SORHA); 80 g/ha | common sunflower (HELAN); 20 g/ha | common sunflower (HELAN); 40 g/ha | common sunflower (HELAN); 80 g/ha | wild buckwheat (POLCO); 20 g/ha | wild buckwheat (POLCO); 40 g/ha | wild buckwheat (POLCO); 80 g/ha | [3]; 20 g/ha | [3]; 40 g/ha | [3]; 80 g/ha | winter rape (BRSNW); 20 g/ha | winter rape (BRSNW); 40 g/ha | winter rape (BRSNW); 80 g/ha | [4]; 20 g/ha | [4]; 40 g/ha | [4]; 80 g/ha | velvetleaf (ABUTH); 20 g/ha | velvetleaf (ABUTH); 40 g/ha | velvetleaf (ABUTH); 80 g/ha | Canada horseweed (ERICA); 20 g/ha | Canada horseweed (ERICA); 40 g/ha | Canada horseweed (ERICA); 80 g/ha | nutsedge (CYPES); 20 g/ha | nutsedge (CYPES); 40 g/ha | nutsedge (CYPES); 80 g/ha

CCOC(=O)c1nc(C(Cl)(Cl)Cl)n(-c2ccc(Cl)cc2Cl)n1 [Fenchlorazole-ethyl, fenchlorazole-ethyl]
0%: spring wheat (TRZAS); 10 g/ha | spring wheat (TRZAS); 20 g/ha | spring wheat (TRZAS); 40 g/ha | wild chamomile (MATCH); 10 g/ha | wild chamomile (MATCH); 20 g/ha | wild chamomile (MATCH); 40 g/ha | spring barley (HORVS); 10 g/ha | spring barley (HORVS); 20 g/ha | spring barley (HORVS); 40 g/ha | Russian thistle (SASKR); 10 g/ha | Russian thistle (SASKR); 20 g/ha | Russian thistle (SASKR); 40 g/ha | winter rape (BRSNW); 10 g/ha | winter rape (BRSNW); 20 g/ha | winter rape (BRSNW); 40 g/ha
